# Values quoted from earlier work as cited in article PMC4982639, “Structural Basis of Microtubule Destabilization by Potent Auristatin Anti-Mitotics” (PLoS ONE, 2016).
# Key:
# cellular assays = settings: stated in the conclusions as background; no reference given
# tubulin = settings: compared with vinca alkaloids, free tubulin
# Description: (§1) Low resolution crystal structures of dolastatin 10 derivatives in complex with tubulin have further confirmed the region of binding for the auristatins, which overlaps w ...
# free tubulin = test system: free tubulin
# Description: as §1
# [1] = test system: cells expressing the CD30 epitope; settings: released in the cytosol from the internalized ADC Brentuximab vedotin
# Description: The mechanisms by which these molecules act on tubulin dimers include the induction of curved aggregates and inhibition of nucleotide exchange. MMAE comprises the four amino acids monomethylvaline (MeVal), valine (Val), dolaisoleuine (Dil) and dolaproine (Dap), and the carboxy-terminal amine norephedrine (Fig 1A). This agent provides the cytotoxic activity for the ADC Brentuximab vedotin, currently designated for relapsed Hodgkin lymphoma and anaplastic large cell lymphoma. Bren ...
# tubulin dimers = settings: in vitro
# Description: This model of curvature between dimers is supported in vitro by the formation of curved spiral or r ...
compound,measurement,setting,value
monomethyl auristatin F [MMAF],potency in cellular assays,cellular assays,nano- and picomolar potency
dolastatin 10,inhibition of nucleotide exchange,tubulin,much greater inhibition of nucleotide exchange
same,type of inhibition of vinca alkaloids,free tubulin,non-competitive inhibitor of the vinca alkaloids
monomethyl auristatin E [MMAE],cellular effect of released MMAE,[1],mitotic arrest and apoptosis
same,potency in cellular assays,cellular assays,nano- and picomolar potency
dolastatin,formation of curved aggregates,tubulin dimers,formation of curved spiral or ring shaped aggregates
cryptophycin,formation of curved aggregates,tubulin dimers,formation of curved spiral or ring shaped aggregates
CC[C@]1(O)C[C@@H]2CN(CCc3c([nH]c4ccccc34)[C@@](C(=O)OC)(c3cc4c(cc3OC)N(C)[C@H]3[C@@](O)(C(=O)OC)[C@H](OC(C)=O)[C@]5(CC)C=CCN6CC[C@]43[C@@H]65)C2)C1 [vinblastine],formation of curved aggregates,tubulin dimers,formation of curved spiral or ring shaped aggregates
